Data published in US10736907B2, “Use of sugar-alcohols in tibolone compositions” (Mithra Pharmaceuticals S.A., priority 2016, dated 2020).
Read-outs that look alike come from different tables or passages of the source.

Assay: Tibolone impurities (A, B, C, total except C) in tablets by HPLC just after production and during storage (stability)
Assay type: physicochemical
Protocol: Tibolone tablets were manufactured by a conventional direct compression process. Briefly, the raw materials were weighed, sieved and homogenized. Following homogenization, the mixture was compressed into tablets. Just after production (i.e. at t=0), the tablets were analyzed for tibolone impurities by a chromatography (HPLC) method that allows a suitable separation between the peaks of impurities A, B and C (Tibolone degradation products described in the current European Pharmacopeia Monograph 1739) under the following conditions: • Equipment: HPLC system • Pre-column: Universal RP, EC 4/3 • Stationary phase: Nucleodur 100-3 C18ec Particulars' diameter: 3 μm • Length: 150 mm • Internal diameter: 4.6 mm • Mobile phase: • Solvent A: water for chromatography R • Solvent B: Acetonitrile for chromatography R • Gradient program: […]
The tablets were packed into PVC/Aluminium blisters and stored either 1) at a temperature of 25° C. and a relative humidity of 60% (long term stability conditions for Zone II), 2) at a temperature of 40° C. and a relative humidity of 75% (accelerated stability conditions), or 3) at ambient conditions (laboratory conditions, less than 25° C., no humidity control). After 1, 2, 3 and/or 6 months of storage (up to 18 months for batches #2 and #3), the tablets were analyzed for tibolone impurities.

Row | Compound | stabilizing effect on tibolone in the tablets (in words) (excipient added to tibolone tablets) | stabilizing effect on tibolone in the tablets (in words)
1 | O=C(O)CN(CCN(CC(=O)O)CC(=O)O)CC(=O)O [EDTA] | does not further stabilize | –
2 | CCCCCCCCCCCCCCCC(=O)OC[C@H](O)[C@H]1OC(=O)C(O)=C1O [ascorbyl palmitate] | – | additional stabilizing effect
